Laboratory results taken from patent publication US8092785B2, “Process for milling poorly soluble drugs in presence of liquid propellants” (Glaxo Group Limited, priority 2004, dated 2012).

What was measured:
[1] = Physical form of milled, co-milled or spray dried product by XRPD; type: physicochemical
Protocol: Drug substance prepared according to the present invention maybe characterised by a series of physical analytical techniques well known to those skilled in the art for analysing physical form, for instance XPRD, polarised light microscopy (PLM), thermal analysis, FT-IR and laser diffraction particle sizing.
500 mg of drug or drug:polymer blend (PVP K30, PVP/VA 64 (BASF) and PVP/VA 37 (BASF)) (1:2 w/w) was ball milled in a mixer mill (MM2 Mixer mill, Glen Creston Ltd). The sample was milled at 17.5 1/sec in a 25 ml chamber for 120 minutes at 2% w/v with 2×12 mm diameter and 6×7 mm diameter stainless steel ball bearings.
500 mg of drug or drug:polymer blend (PVP K30) (1:2 w/w) was placed in a 25 ml milling chamber (2% w/v). Grinding media of 2×5 mm, 2×7 mm, 2×9 mm and 2×12 mm ball bearings were added. 10 g of 134a (Du Pont) was then added into the milling chamber via a valve. The sample was then milled for 2×20 minute periods at a frequency of 25 1/sec using a Retsch MM200 Mixer mill.
XPRD patterns of resultant products are shown as FIG. 1.1 to 1.4.
500 mg of drug and 1 g of polymer (1:2 w/w) was placed in a 25 ml measuring chamber. Grinding media of 2 mm Yttrium-Zirconium beads (equivalent volume 5 ml) were added. 12 ml of propellant 134a was then added into the milling chamber via a valve. The sample was then milled for 30 minutes at a frequency of 25 1/sec using a Retsch MM200 Mixer mill.
Drug (2 g) and polymer (3 g) were dissolved in approximately 200 ml of dimethyl formamide and spray dried at approximately 2 ml/min using a lab scale spray drier (Buchi B191, outlet temperature about 95° C.). The spray dried powders were then further dried at 65° C. under vacuum for 48 hrs. The dispersions were amorphous by XRPD.
Thus, the co-milling process has not compromised the physical form of compound A.

[2] = Dissolution testing of ball milled and 134a ball milled products (USP II apparatus, sink conditions); type: physicochemical; conditions: neat drug ball milled in 134a, 37.5° C., 50 RPM
Protocol: The dissolution profiles of study compounds prepared by ball milling and 134a ball milling were measured according to the following method:
Dissolution testing was carried out under sink conditions using a VanKel USP II dissolution apparatus (fluid pump Model 17-2300, water bath VK750D, water bath stirrer VK7010). Dissolution testing was carried out at 37.5° C.+/−0.5° C. (Digitron Type K thermocouple thermometer). Vessels were stirred at 50 RPM. Samples underwent online UV analysis (Hewlett Packard 8453) at time points 0, 2, 5, 10, 15, 20, 30, 45 and 60 minutes. Samples were filtered with a 10 μm filters (Anachem). The pH 6.8 0.1M phosphate buffer^1 was degassed prior to commencement of the dissolution run (Copley Dissofill, model DSF2). Standard curves were prepared by dissolving drug in acetonitrile:water (1:1) for carbamazepine and glibenclamide or acetonitrile:pH 6.8 buffer (1:1) for dipyridamole and indomethacin. Drug concentration, UV cell path length, dissolution media and wavelength of detection were all compound specific. All analysis was carried out in triplicate. ^1 pH 6.8 buffer: 20 l prepared by addition of 10 l of Na2HPO4.2H2O 17.8 g/l to 10 l of NaH2PO4.H2O 13.8 g/l. pH was confirmed using a pH meter.

[3] = design: key: Those in class II have low solubility and high permeability; those in class IV have low solubility and low permeability; conditions: classified according to solubility and permeability (Amidon et al); cited from earlier work
[4] = Particle size of milled product (SEM analysis / particle sizing); type: physicochemical
Protocol: Drug substance prepared according to the present invention maybe characterised by a series of physical analytical techniques well known to those skilled in the art for analysing physical form, for instance XPRD, polarised light microscopy (PLM), thermal analysis, FT-IR and laser diffraction particle sizing. 500 mg of drug or drug:polymer blend (PVP K30, PVP/VA 64 (BASF) and PVP/VA 37 (BASF)) (1:2 w/w) was ball milled in a mixer mill (MM2 Mixer mill, Glen Creston Ltd). The sample was milled at 17.5 1/sec in a 25 ml chamber for 120 minutes at 2% w/v with 2×12 mm diameter and 6×7 mm diameter stainless steel ball bearings. 500 mg of drug or drug:polymer blend (PVP K30) (1:2 w/w) was placed in a 25 ml milling chamber (2% w/v). Grinding media of 2×5 mm, 2×7 mm, 2×9 mm and 2×12 mm ball bearings were added. 10 g of 134a (Du Pont) was then added into the milling chamber via a valve. The sample was then milled for 2×20 minute periods at a frequency of 25 1/sec using a Retsch MM200 Mixer mill.

[5] = ball milling with propellant 134a, 2×20 minute
[6] = conventional ball milling, 120 minutes, no propellant
[7] = ball milling with 134a, compared to conventionally milled product

SMILES | physical form of product [1, 5] | physical form of product [1, 6] | dissolution rate [2] | Biopharmaceutics Classification system class [3] | particle size [4, 7] | particle size ([4]; conventional ball milling)
OCCN(CCO)c1nc(N2CCCCC2)c2nc(N(CCO)CCO)nc(N3CCCCC3)c2n1 [dipyridamole] | dipyridamole form II | predominantly amorphous product | improved in dissolution rate | II |  | 
COc1ccc2c(c1)c(CC(=O)O)c(C)n2C(=O)c1ccc(Cl)cc1 [indomethacin] | γ form | predominantly amorphous product |  | II | significant decrease in particle size | 
COc1ccc(Cl)cc1C(=O)NCCc1ccc(S(=O)(=O)NC(=O)NC2CCCCC2)cc1 [glibenclamide] | remained in the same crystalline form as the starting material | amorphous product |  | II | significant decrease in particle size | 
NC(=O)N1c2ccccc2C=Cc2ccccc21 [carbamazepine, Carbamazepine] | complete conversion to a crystalline form, form III | conversion to a crystalline form, form III |  | II | significant decrease in particle size | no significant decrease in particle size
